Key:
[1] = target: human α2δ-1 subunit of Cav2.2 calcium channel (Homo sapiens, UniProt P54289); test: Binding assay to human α2δ-1 subunit of Cav2.2 calcium channel ([3H]-Gabapentin); conditions: [3H]-Gabapentin 15 nM, human α2δ-1 enriched membranes
Method: Binding assay to human α2δ-1 subunit of Cav2.2 calcium channel. Human a26-1 enriched membranes (2.5 μg) were incubated with 15 nM of radiolabeled [3H]-Gabapentin in assay buffer containing Hepes-KOH 10 mM, pH 7.4. NSB (non specific binding) was measured by adding 10 μM pregabalin. The binding of the test compound was measured at either one concentration (% inhibition at 1 or 10 μM) or five different concentrations to determine affinity values (Ki). After 60 min incubation at 27° C., binding reaction was terminated by filtering through Multiscreen GF/C (Millipore) presoaked in 0.5% polyethyleneimine in Vacuum Manifold Station, followed by 3 washes with ice-cold filtration buffer containing 50 mM Tris-HCl, pH 7.4. Filter plates were dried at 60° C. for 1 hour and 30 μl of scintillation cocktail were added to each well before radioactivity reading. Readings were performed in a Trilux 1450 Microbeta radioactive counter (Perkin Elmer).

[2] = target: human norepinephrine transporter (NET) (Homo sapiens, UniProt P23975); test: Binding assay to human norepinephrine transporter (NET) ([3H]-Nisoxetin); conditions: [3H]-Nisoxetin 5 nM, human NET enriched membranes
Method: Binding assay to human norepinephrine transporter (NET).
Human norepinephrine transporter (NET) enriched membranes ([…]) were incubated with 5 nM of radiolabeled [3H]-Nisoxetin in assay buffer containing 50mM Tris-HCl, 120mM NaCl, 5mM KCI, pH 7.4. NSB (non specific binding) was measured by adding […] of desipramine. The binding of the test compound was measured at either one concentration (% inhibition at 1 or 10 μM) or five different concentrations to determine affinity values (Ki). After 60 min incubation at 4° C., binding reaction was terminated by filtering through Multiscreen GF/C (Millipore) presoaked in 0.5% polyethyleneimine in Vacuum Manifold Station, followed by 3 washes with ice-cold filtration buffer containing 50mM Tris-HCl, 0.9% NaCl, pH 7.4. Filter plates were dried at 60° C. for 1 hour and 30 µl of scintillation cocktail were added to each well before radioactivity reading. Readings were performed in a Trilux 1450 Microbeta radioactive counter (Perkin Elmer).

Sequence of human α2δ-1 subunit of Cav2.2 calcium channel (P54289 25-1103): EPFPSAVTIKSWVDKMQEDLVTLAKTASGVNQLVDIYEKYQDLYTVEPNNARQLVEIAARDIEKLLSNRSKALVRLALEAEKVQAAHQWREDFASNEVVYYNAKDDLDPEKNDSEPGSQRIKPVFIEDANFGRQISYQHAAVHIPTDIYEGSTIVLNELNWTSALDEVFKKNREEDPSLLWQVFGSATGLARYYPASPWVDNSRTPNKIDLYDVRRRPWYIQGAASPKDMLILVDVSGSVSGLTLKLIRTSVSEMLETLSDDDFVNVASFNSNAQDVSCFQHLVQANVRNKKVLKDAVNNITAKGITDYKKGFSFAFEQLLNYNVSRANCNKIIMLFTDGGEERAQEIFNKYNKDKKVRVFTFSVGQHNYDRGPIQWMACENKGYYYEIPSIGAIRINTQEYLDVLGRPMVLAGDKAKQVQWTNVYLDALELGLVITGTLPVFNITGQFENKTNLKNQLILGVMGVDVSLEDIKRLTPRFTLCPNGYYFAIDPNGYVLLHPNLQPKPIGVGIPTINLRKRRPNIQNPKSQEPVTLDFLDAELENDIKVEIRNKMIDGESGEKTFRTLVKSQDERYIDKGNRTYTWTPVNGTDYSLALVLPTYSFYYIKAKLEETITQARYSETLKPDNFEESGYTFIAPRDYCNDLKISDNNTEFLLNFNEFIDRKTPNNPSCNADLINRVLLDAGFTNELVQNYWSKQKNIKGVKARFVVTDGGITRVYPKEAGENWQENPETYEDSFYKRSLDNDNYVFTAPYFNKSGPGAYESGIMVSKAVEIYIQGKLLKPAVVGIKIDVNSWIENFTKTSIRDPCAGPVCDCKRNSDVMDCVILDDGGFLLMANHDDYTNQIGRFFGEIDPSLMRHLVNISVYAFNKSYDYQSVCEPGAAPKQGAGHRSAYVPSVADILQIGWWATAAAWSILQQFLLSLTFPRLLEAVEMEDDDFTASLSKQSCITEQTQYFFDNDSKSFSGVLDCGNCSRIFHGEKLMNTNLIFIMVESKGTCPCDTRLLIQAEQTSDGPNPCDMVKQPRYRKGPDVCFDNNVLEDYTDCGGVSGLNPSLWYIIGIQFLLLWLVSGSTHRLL
Sequence of human norepinephrine transporter (NET) (P23975 whole entry): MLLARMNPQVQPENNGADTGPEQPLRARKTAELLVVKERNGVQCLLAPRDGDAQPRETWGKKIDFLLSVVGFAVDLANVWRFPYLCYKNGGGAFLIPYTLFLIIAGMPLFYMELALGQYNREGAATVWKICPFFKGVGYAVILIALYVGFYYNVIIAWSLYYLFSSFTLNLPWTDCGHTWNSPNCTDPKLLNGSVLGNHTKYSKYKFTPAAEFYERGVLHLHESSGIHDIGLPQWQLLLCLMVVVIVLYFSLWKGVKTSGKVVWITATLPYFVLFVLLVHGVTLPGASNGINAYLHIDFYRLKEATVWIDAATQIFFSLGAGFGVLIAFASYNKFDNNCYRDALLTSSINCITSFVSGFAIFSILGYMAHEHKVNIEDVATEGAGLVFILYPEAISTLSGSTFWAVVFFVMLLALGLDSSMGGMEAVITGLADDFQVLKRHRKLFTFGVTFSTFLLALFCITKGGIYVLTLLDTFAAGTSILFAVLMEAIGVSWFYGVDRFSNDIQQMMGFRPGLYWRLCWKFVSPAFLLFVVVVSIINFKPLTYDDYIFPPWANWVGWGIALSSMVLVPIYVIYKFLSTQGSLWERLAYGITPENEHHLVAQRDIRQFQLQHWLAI

In the case of `CNCC[C@H](Oc1ccc(CN2CCN(C)c3nc(OC)ncc3C2=O)c(C)c1)c1ccccc1` [Example 2, (S)-2-Methoxy-9-methyl-6-(2-methyl-4-(3-(methylamino)-1-phenylpropoxy)benzyl)-6,7,8,9-tetrahydro-5H-pyrimido[4,5-e][1,4]diazepin-5-one], the Ki [1] is reported as < 100 nM and the Ki [2] is reported as < 100 nM.

`CNCC[C@H](Oc1ccc(CN2CCN(C)c3ccncc3C2=O)c(F)c1)c1ccccc1` [Example 8, (S)-4-(2-Fluoro-4-(3-(methylamino)-1-phenylpropoxy)benzyI)-1-methyl-1,2,3,4-tetrahydro-5H-pyrido[4,3-e][1,4]diazepin-5-one] was tested, and the Ki [1] was < 100 nM and the Ki [2] was 100 to 500 nM.

`CNCC[C@H](Oc1ccc(CN2CCN(C)c3nc(OC)ncc3C2=O)c(F)c1)c1ccccc1` [Example 9, (S)-6-(2-Fluoro-4-(3-(methylamino)-1-phenylpropoxy)benzyl)-2-methoxy-9-methyl-6,7,8,9-tetrahydro-5H-pyrimido[4,5-e][1,4]diazepin-5-one] was tested, and the Ki [1] was < 100 nM and the Ki [2] was 100 to 500 nM.

With `CCNc1ncc2c(n1)N(C)CCN(Cc1ccc(O[C@H](CCNC)c3cccc(F)c3)cc1F)C2=O` [Example 13, (R)-2-(Ethylamino)-6-(2-fluoro-4-(1-(3-fluorophenyl)-3-(methylamino)propoxy)benzyl)-9-methyl-6,7,8,9-tetrahydro-5H-pyrimido[4,5-e][1,4]diazepin-5-one] the Ki [1] was ≥ 3000 nM and the Ki [2] was 500 to 1000 nM.

`CNCC[C@H](Oc1ccc(CN2CCN(C)c3cc(OC)ncc3C2=O)c(F)c1)c1ccccc1` [Example 12, (S)-4-(2-Fluoro-4-(3-(methylamino)-1-phenylpropoxy)benzyl)-8-methoxy-1-methyl-1,2,3,4-tetrahydro-5H-pyrido[4,3-e][1,4]diazepin-5-one] was tested, and the Ki [1] was < 100 nM and the Ki [2] was 100 to 500 nM.

Compound `CNCC[C@H](Oc1ccc(CN2CCN(C)c3ccncc3C2=O)c(C)c1)c1ccccc1` [Example 1, (S)-1-Methyl-4-(2-methyl-4-(3-(methylamino)-1-phenylpropoxy)benzyl) -1,2,3,4-tetrahydro-5H-pyrido[4,3-e][1,4]cliazepin-5-one] has a Ki [1] of 100 to 500 nM and a Ki [2] of 100 to 500 nM.

`CNCC[C@H](Oc1ccc(CN2CCN(C)c3ncncc3C2=O)c(C)c1)c1ccccc1` [Example 3, (S)-9-Methyl-6-(2-methyl-4-(3-(methylamino)-1-phenylpropoxy)benzyl)-6,7,8,9-tetrahydro-5H-pyrimido[4,5-e][1,4]diazepin-5-one] was tested, and the Ki [1] was < 100 nM and the Ki [2] was < 100 nM.

For `CCNc1ncc2c(n1)N(C)CCN(Cc1ccc(O[C@@H](CCNC)c3ccccc3)cc1Cl)C2=O` [Example 5, (S)-6-(2-Chloro-4-(3-(methylamino)-1-phenylpropoxy)benzyl)-2-(ethylamino)-9-methyl-6,7,8,9-tetrahydro-5H-pyrimido[4,5-e][1,4]diazepin-5-one], the Ki [1] was < 100 nM and the Ki [2] was 100 to 500 nM.

With `CNCC[C@H](Oc1ccc(CN2CCN(C)c3nc(N)ncc3C2=O)c(Cl)c1)c1ccccc1` [Example 4, (S)-2-Amino-6-(2-chloro-4-(3-(methylamino)-1-phenylpropoxy)benzyl)-9-methyl-6,7,8,9-tetrahydro-5H-pyrimido[4,5-e][1,4]diazepin-5-one] the Ki [1] was < 100 nM and the Ki [2] was < 100 nM.

With `CCNc1ncc2c(n1)N(C)CCN(Cc1ccc(O[C@@H](CCNC)c3cccc(F)c3)cc1F)C2=O` [Example 14, (S)-2-(Ethylamino)-6-(2-fluoro-4-(1-(3-fluorophenyl)-3-(methylamino)propoxy)benzyl)-9-methyl-6,7,8,9-tetrahydro-5H-pyrimido[4,5-e][1,4]diazepin-5-one] the Ki [1] was < 100 nM and the Ki [2] was 100 to 500 nM.

With `CNCC[C@H](Oc1ccc(CN2CCN(C)c3nc(N)ncc3C2=O)c(F)c1)c1ccccc1` [Example 11, (S)-2-Amino-6-(2-fluoro-4-(3-(methylamino)-1-phenylpropoxy)benzyl)-9-methyl-6,7,8,9-tetrahydro-5H-pyrimido[4,5-e][1,4]diazepin-5-one] the Ki [1] was < 100 nM and the Ki [2] was 100 to 500 nM.

With `CNCC[C@H](Oc1cnc(CN2CCN(C)c3nc(N)ncc3C2=O)c(F)c1)c1cccc(F)c1` [Example 7, (S)-2-Amino-6-((3-fluoro-5-(1-(3-fluorophenyl)-3-(methylamino)propoxy)pyridin-2-yl)methyl)-9-methyl-6,7,8,9-tetrahydro-5H-pyrimido[4,5-e][1,4]diazepin-5-one] the Ki [1] was < 100 nM and the Ki [2] was < 100 nM.

For `CCNc1ncc2c(n1)N(C)CCN(Cc1ncc(O[C@@H](CCNC)c3cccc(F)c3)cc1F)C2=O` [Example 6, (S)-2-(Ethylamino)-6-((3-fluoro-5-(1-(3-fluorophenyl)-3-(methylamino)propoxy)pyridin-2-yl)methyl)-9-methyl-6,7,8,9-tetrahydro-5H-pyrimido[4,5-e][1,4]diazepin-5-one], the Ki [1] was < 100 nM and the Ki [2] was 100 to 500 nM.

With `CNCC[C@H](Oc1ccc(CN2CCN(C)c3ncncc3C2=O)c(F)c1)c1ccccc1` [Example 10, (S)-6-(2-Fluoro-4-(3-(methylamino)-1-phenylpropoxy)benzyl)-9-methyl-6,7,8,9-tetrahydro-5H-pyrimido[4,5-e][1,4]diazepin-5-one] the Ki [1] was < 100 nM and the Ki [2] was < 100 nM.

In the case of `CNCC[C@H](Oc1cnc(CN2CCN(C)c3cc(OC)ncc3C2=O)c(F)c1)c1cccs1` [Example 15, (S)-4-((3-Fluoro-5-(3-(methylamino)-1-(thiophen-2-yl)propoxy)pyridin-2-yl)methyl)-8-methoxy-1-methyl-1,2,3,4-tetrahydro-5H-pyrido[4,3-e][1,4]diazepi n-5-one.], the Ki [1] is reported as < 100 nM and the Ki [2] is reported as < 100 nM.
